Test results taken from ChEMBL document CHEMBL3885881, “DrugMatrix”.

Species on record: Rattus norvegicus
Test: DrugMatrix - Regimen: Daily Repeat
Assay type: toxicity, organism-based, Sprague-Dawley
Design: regimen Daily Repeat, gender Male, age 6-8 weeks
Details: in vivo, po, route oral GAVAGE, vehicle .5 % CMC; for ABSOLUTE BASOPHIL / ABSOLUTE EOSINOPHIL / ABSOLUTE LYMPHOCYTE / ABSOLUTE MONOCYTE / ABSOLUTE SEGMENTED NEUTROPHIL / BASOPHIL / EOSINOPHIL / ERYTHROCYTE COUNT / HEMATOCRIT / HEMOGLOBIN / LEUKOCYTE COUNT / LYMPHOCYTE / MEAN CORPUSCULAR HEMOGLOBIN / MEAN CORPUSCULAR HEMOGLOBIN CONCENTRATION / MEAN CORPUSCULAR VOLUME / MONOCYTE / NEUTROPHIL / NUCLEATED RED BLOOD CELLS / PLATELET COUNT: tissue Blood; for ALANINE AMINOTRANSFERASE / ALBUMIN / ALKALINE PHOSPHATASE / ASPARTATE AMINOTRANSFERASE / BLOOD UREA NITROGEN / CARBON DIOXIDE / CHLORIDE / CHOLESTEROL / CREATINE PHOSPHOKINASE / CREATININE / GLUCOSE / LACTATE DEHYDROGENASE / LIPASE / PHOSPHORUS / POTASSIUM / SODIUM / TOTAL BILIRUBIN / TOTAL PROTEIN / URIC ACID: tissue Plasma
[1] = 0 mg/kg, 72 h, dose level Control, time 3 day
[2] = 0 mg/kg, 120 h, dose level Control, time 5 day
[3] = 200 mg/kg, 72 h, dose level Low, time 3 day

SMILES: CCn1cc(C(=O)O)c(=O)c2cc(F)c(N3CCNCC3)cc21 [NORFLOXACIN]
- ABSOLUTE BASOPHIL [1]: 0 CELLS/uL
- ABSOLUTE EOSINOPHIL [1]: 0 CELLS/uL
- ABSOLUTE LYMPHOCYTE [1]: 12269.67 CELLS/uL
- ABSOLUTE MONOCYTE [1]: 160.33 CELLS/uL
- ABSOLUTE SEGMENTED NEUTROPHIL [1]: 970 CELLS/uL
- BASOPHIL [1]: 0%
- EOSINOPHIL [1]: 0%
- ERYTHROCYTE COUNT [1]: 5.76 x10E6/uL
- HEMATOCRIT [1]: 36.57%
- HEMOGLOBIN [1]: 14.22 G/DL
- LEUKOCYTE COUNT [1]: 13.4 x10E3/uL
- LYMPHOCYTE [1]: 91.67%
- MEAN CORPUSCULAR HEMOGLOBIN [1]: 24.67 pg
- MEAN CORPUSCULAR HEMOGLOBIN CONCENTRATION [1]: 38.85 G/DL
- MEAN CORPUSCULAR VOLUME [1]: 63.52 fL
- MONOCYTE [1]: 1.17%
- NEUTROPHIL [1]: 7.17%
- NUCLEATED RED BLOOD CELLS [1]: 0.33 /100WBC
- PLATELET COUNT [1]: 1250.83 x10E3/uL
- ALANINE AMINOTRANSFERASE [1]: 49.17 u/L
- ALBUMIN [1]: 4.33 G/DL
- ALKALINE PHOSPHATASE [1]: 378.5 u/L
- ASPARTATE AMINOTRANSFERASE [1]: 82.17 u/L
- BLOOD UREA NITROGEN [1]: 15 mg/dL
- CARBON DIOXIDE [1]: 34.33 mmol/L
- CHLORIDE [1]: 99.17 MEQ/L
- CHOLESTEROL [1]: 71.17 mg/dL
- CREATINE PHOSPHOKINASE [1]: 258.67 u/L
- CREATININE [1]: 0.18 mg/dL
- GLUCOSE [1]: 142.67 mg/dL
- LACTATE DEHYDROGENASE [1]: 154.33 u/L
- LIPASE [1]: 9 u/L
- PHOSPHORUS [1]: 11.67 mg/dL
- POTASSIUM [1]: 7.13 MEQ/L
- SODIUM [1]: 142.22 MEQ/L
- TOTAL BILIRUBIN [1]: 0.18 mg/dL
- TOTAL PROTEIN [1]: 5.77 G/DL
- URIC ACID [1]: 1.55 mg/dL
- ABSOLUTE BASOPHIL [2]: 0 CELLS/uL
- ABSOLUTE EOSINOPHIL [2]: 23.33 CELLS/uL
- ABSOLUTE LYMPHOCYTE [2]: 14943.67 CELLS/uL
- ABSOLUTE MONOCYTE [2]: 32 CELLS/uL
- ABSOLUTE SEGMENTED NEUTROPHIL [2]: 1084.33 CELLS/uL
- BASOPHIL [2]: 0%
- EOSINOPHIL [2]: 0.17%
- ERYTHROCYTE COUNT [2]: 5.71 x10E6/uL
- HEMATOCRIT [2]: 35.28%
- HEMOGLOBIN [2]: 14.27 G/DL
- LEUKOCYTE COUNT [2]: 16.08 x10E3/uL
- LYMPHOCYTE [2]: 93%
- MEAN CORPUSCULAR HEMOGLOBIN [2]: 25.02 pg
- MEAN CORPUSCULAR HEMOGLOBIN CONCENTRATION [2]: 40.43 G/DL
- MEAN CORPUSCULAR VOLUME [2]: 61.82 fL
- MONOCYTE [2]: 0.17%
- NEUTROPHIL [2]: 6.67%
- NUCLEATED RED BLOOD CELLS [2]: 0.33 /100WBC
- PLATELET COUNT [2]: 1274 x10E3/uL
- ALANINE AMINOTRANSFERASE [2]: 54.17 u/L
- ALBUMIN [2]: 4.22 G/DL
- ALKALINE PHOSPHATASE [2]: 373.17 u/L
- ASPARTATE AMINOTRANSFERASE [2]: 81.83 u/L
- BLOOD UREA NITROGEN [2]: 16.67 mg/dL
- CARBON DIOXIDE [2]: 30.33 mmol/L
- CHLORIDE [2]: 99 MEQ/L
- CHOLESTEROL [2]: 71 mg/dL
- CREATINE PHOSPHOKINASE [2]: 273.5 u/L
- CREATININE [2]: 0.22 mg/dL
- GLUCOSE [2]: 141.83 mg/dL
- LACTATE DEHYDROGENASE [2]: 153.67 u/L
- LIPASE [2]: 10.33 u/L
- PHOSPHORUS [2]: 11.38 mg/dL
- POTASSIUM [2]: 7.08 MEQ/L
- SODIUM [2]: 142.75 MEQ/L
- TOTAL BILIRUBIN [2]: 0.18 mg/dL
- TOTAL PROTEIN [2]: 6.1 G/DL
- URIC ACID [2]: 1.67 mg/dL
- ABSOLUTE BASOPHIL [3]: 0 CELLS/uL
- ABSOLUTE EOSINOPHIL [3]: 0 CELLS/uL
- ABSOLUTE LYMPHOCYTE [3]: 11949 CELLS/uL
- ABSOLUTE MONOCYTE [3]: 111 CELLS/uL
- ABSOLUTE SEGMENTED NEUTROPHIL [3]: 1006.67 CELLS/uL
- BASOPHIL [3]: 0%
- EOSINOPHIL [3]: 0%
- ERYTHROCYTE COUNT [3]: 5.6 x10E6/uL
- HEMATOCRIT [3]: 36.17%
- HEMOGLOBIN [3]: 14.13 G/DL
- LEUKOCYTE COUNT [3]: 13.07 x10E3/uL
- LYMPHOCYTE [3]: 91.67%
- MEAN CORPUSCULAR HEMOGLOBIN [3]: 25.27 pg
- MEAN CORPUSCULAR HEMOGLOBIN CONCENTRATION [3]: 39.07 G/DL
- MEAN CORPUSCULAR VOLUME [3]: 64.63 fL
- MONOCYTE [3]: 1%
- NEUTROPHIL [3]: 7.33%
- NUCLEATED RED BLOOD CELLS [3]: 0 /100WBC
- PLATELET COUNT [3]: 1470.67 x10E3/uL
- ALANINE AMINOTRANSFERASE [3]: 63.33 u/L
- ALBUMIN [3]: 4.33 G/DL
- ALKALINE PHOSPHATASE [3]: 468 u/L
- ASPARTATE AMINOTRANSFERASE [3]: 89 u/L
- BLOOD UREA NITROGEN [3]: 13.67 mg/dL
- CARBON DIOXIDE [3]: 28 mmol/L
- CHLORIDE [3]: 102 MEQ/L
- CHOLESTEROL [3]: 54.33 mg/dL
- CREATINE PHOSPHOKINASE [3]: 294 u/L
- CREATININE [3]: 0.26 mg/dL
- GLUCOSE [3]: 137.33 mg/dL
- LACTATE DEHYDROGENASE [3]: 260.67 u/L
- LIPASE [3]: 10 u/L
- PHOSPHORUS [3]: 13.5 mg/dL
- POTASSIUM [3]: 6.81 MEQ/L
- SODIUM [3]: 146.4 MEQ/L
- TOTAL BILIRUBIN [3]: 0.23 mg/dL
- TOTAL PROTEIN [3]: 6 G/DL
- URIC ACID [3]: 2.13 mg/dL
